Test results reported in US20230133087A1, “ACTIVE COMPOUND COMBINATIONS AND FUNGICIDE COMPOSITIONS COMPRISING THOSE” (priority 2020, published 2023).
Several values for one entry are separate records, joined by “and”; a condition that tells them apart may be missing. Equal entries are not always repeated.

Assays:
Type in all cases: cell-based
Parastasonospora nodorum = experiment: In vitro-test with fungal microorganisms: Parastasonospora nodorum
Method: (§1) The degree of efficacy, expressed in % is denoted. 0% means an efficacy which corresponds to that of the control while an efficacy of 100% means that no disease is observed.
(§2) Wells of 96-well microtiter plates are filled with 30 μl of a preparation of test compound or compound combination in methanol+emulsifier alkylaryl-polyglycol-ether. Thereafter, the solvent is evaporated in a hood. At the next step, into each well 200 μl of liquid growth medium is given, that has been amended with an appropriate concentration of spores or mycelium suspension of the test fungus.
(§3) With the aid of a photometer the extinction in all wells is measured at the wavelength of 600 nm.
(§4) The microtiter plates are incubated for 3 to 7 days at 20° C. and 85% relative humidity. After the incubation inhibition of growth is determined photometrically. Efficacy is calculated in relation to the untreated control, 0% efficacy means fungal growth as high as in untreated control while 100% efficacy means no fungal growth is measured.

Diaporthe citri = experiment: In vitro-test with fungal microorganisms: Diaporthe citri
Method: as §1, §2, §3, §4

Cordana musae = experiment: In vitro-test with fungal microorganisms: Cordana musae
Method: as §1, §2, §3, §4

Fusarium culmorum = experiment: In vitro-test with fungal microorganisms: Fusarium culmorum
Method: as §1, §2, §3, §4

Colletotrichum coccodes = experiment: In vitro-test with fungal microorganisms: Colletotrichum coccodes
Method: as §1, §2, §3, §4

Botrytis cinerea = experiment: In vitro-test with fungal microorganisms: Botrytis cinerea
Method: as §1, §2, §3, §4

Alternaria alternata = experiment: In vitro-test with fungal microorganisms (microtiter plate, photometric growth inhibition): Alternaria alternata
Method: as §1, §2, §3, §4

Cercospora beticola = experiment: In vitro-test with fungal microorganisms: Cercospora beticola
Method: as §1, §2, §3, §4

Compound: Cc1cccc(-n2nnn(C)c2=O)c1COc1ccn(-c2ccc(Cl)cc2)n1 [metyltetraprole]
- efficacy (Parastasonospora nodorum; Table H2, 0.08 ppm): 80% and 76%
- efficacy (Parastasonospora nodorum; Table H2, 0.4 ppm): 92%
- efficacy (Parastasonospora nodorum; Table H2, 2 ppm): 100%
- efficacy (Parastasonospora nodorum; Table H2, 10 ppm): 100%
- efficacy (Diaporthe citri; Table F1, 0.4 ppm): 91%
- efficacy (Diaporthe citri; Table F1, 2 ppm): 99%
- efficacy (Diaporthe citri; Table F1, 10 ppm): 99%
- efficacy (Diaporthe citri; Table F2, 0.4 ppm): 89%
- efficacy (Diaporthe citri; Table F2, 2 ppm): 99%
- efficacy (Cordana musae; 0.08 ppm): 58%
- efficacy (Cordana musae; 0.4 ppm): 73%
- efficacy (Cordana musae; 2 ppm): 82%

Compound: CON=C(C(=O)OC)c1ccccc1CON=C(C)c1cccc(C(F)(F)F)c1 [trifloxystrobin]
- efficacy (Parastasonospora nodorum; Table H1, 0.04 ppm): 65%
- efficacy (Parastasonospora nodorum; Table H1, 0.2 ppm): 85%
- efficacy (Parastasonospora nodorum; Table H2, 0.008 ppm): 44%
- efficacy (Parastasonospora nodorum; Table H2, 0.04 ppm): 79%
- efficacy (Fusarium culmorum; 0.008 ppm): 14%
- efficacy (Fusarium culmorum; 0.04 ppm): 18%
- efficacy (Fusarium culmorum; 0.2 ppm): 41%
- efficacy (Fusarium culmorum; 1 ppm): 68%
- efficacy (Cordana musae; 0.2 ppm): 73%
- efficacy (Cordana musae; 1 ppm): 84%

Compound: CC(C)c1ccc(Cl)cc1CN(C(=O)c1c(C(F)F)nn(C)c1F)C1CC1 [isoflucypram]
- efficacy (Fusarium culmorum; 0.04 ppm): 0%
- efficacy (Fusarium culmorum; 0.2 ppm): 11%

Compound: O=C(NC1CCC1c1ccc(Cl)cc1Cl)c1cccnc1C(F)(F)F (stereo in doubt) [cyclobutrifluram]
- efficacy (Parastasonospora nodorum; Table H2, 0.04 ppm): 27%
- efficacy (Diaporthe citri; Table F1, 0.04 ppm): 0%

Compound: O=C(NC1CCC1c1ccc(Cl)cc1Cl)c1cccnc1C(F)(F)F (stereo in doubt) [(2.060) cyclobutrifluram, cyclobutrifluram]
- efficacy (Colletotrichum coccodes; 0.04 ppm): 5%
- efficacy (Colletotrichum coccodes; 0.2 ppm): 8%
- efficacy (Cordana musae; 0.04 ppm): 3%
- efficacy (Cordana musae; 0.2 ppm): 4%
- efficacy (Cordana musae; 1 ppm): 6%

Compound: C[C@@H]1CC(C)(C)c2cccc(NC(=O)c3cn(C)nc3C(F)F)c21 [inpyrfluxam]
- efficacy (Parastasonospora nodorum; Table H3, 0.008 ppm): 20%
- efficacy (Cordana musae; 0.008 ppm): 16%
- efficacy (Cordana musae; 0.04 ppm): 0%
- efficacy (Cordana musae; 0.2 ppm): 6%

Compound: COC(=O)C(O)(Cn1cncn1)c1ccc(Oc2ccc(Cl)cc2)cc1Cl (stereo not shown) [(I-1), Methyl 2-[2-chloro-4-(4-chlorophenoxy)phenyl]-2-hydroxy-3-(1,2,4-triazol-1-yl)propanoate]
- efficacy (Parastasonospora nodorum; Table H1, 0.02 ppm): 0%
- efficacy (Parastasonospora nodorum; Table H1, 2.5 ppm): 99%
- efficacy (Parastasonospora nodorum; Table H2, 0.02 ppm): 2% and 0% and 3%
- efficacy (Parastasonospora nodorum; Table H2, 2.5 ppm): 96%
- efficacy (Parastasonospora nodorum; Table H3, 0.02 ppm): 9%
- efficacy (Botrytis cinerea; 2.5 ppm): 62%
- efficacy (Botrytis cinerea; 2.5 ppm, with penflufen 1 ppm, metyltetraprole 0.08 ppm): 63%
- efficacy (Colletotrichum coccodes; 0.02 ppm): 0% and 4%
- efficacy (Alternaria alternata; 2.5 ppm): 92%
- efficacy (Fusarium culmorum; 0.02 ppm): 9%
- efficacy (Fusarium culmorum; 0.1 ppm): 6% and 0%
- efficacy (Fusarium culmorum; 0.5 ppm): 0%
- efficacy (Diaporthe citri; Table F1, 2.5 ppm): 99%
- efficacy (Diaporthe citri; Table F2, 0.02 ppm): 2%
- efficacy (Diaporthe citri; Table F2, 0.5 ppm): 92%
- efficacy (Diaporthe citri; Table F2, 2.5 ppm): 98%
- efficacy (Cercospora beticola; 0.02 ppm): 50%
- efficacy (Cercospora beticola; 0.1 ppm): 36%
- efficacy (Cercospora beticola; 0.5 ppm): 74%
- efficacy (Cercospora beticola; 2.5 ppm): 99%

Compound: Cc1nn(C)c(F)c1C(=O)Nc1ccccc1C(C)CC(C)C (stereo not shown) [(2.017) penflufen, penflufen]
- efficacy (Botrytis cinerea; 1 ppm): 35%
- efficacy (Botrytis cinerea; 5 ppm): 7%
- efficacy (Colletotrichum coccodes; 0.04 ppm): 5%
- efficacy (Colletotrichum coccodes; 0.2 ppm): 0%
- efficacy (Alternaria alternata; 0.2 ppm): 14%

Compound: O=C(NCCc1ncc(C(F)(F)F)cc1Cl)c1ccccc1C(F)(F)F [(2.005) fluopyram, fluopyram]
- efficacy (Botrytis cinerea; 0.8 ppm): 0%
- efficacy (Colletotrichum coccodes; 0.16 ppm): 10% and 0%
- efficacy (Colletotrichum coccodes; 0.8 ppm): 0%
- efficacy (Alternaria alternata; 0.16 ppm): 72%
- efficacy (Alternaria alternata; 0.8 ppm): 73%
- efficacy (Alternaria alternata; 4 ppm): 95%
- efficacy (Cordana musae; 0.16 ppm): 0%
- efficacy (Cordana musae; 0.8 ppm): 6% and 0%

Compound: CO/N=C(/C1=NOCCO1)c1ccccc1Oc1ncnc(Oc2ccccc2Cl)c1F [(3.012) fluoxastrobin, fluoxastrobin]
- efficacy (Botrytis cinerea; 0.08 ppm): 15% and 12%
- efficacy (Botrytis cinerea; 2 ppm): 59% and 52%
- efficacy (Botrytis cinerea; 10 ppm): 86% and 83%
- efficacy (Colletotrichum coccodes; 0.008 ppm): 0%
- efficacy (Colletotrichum coccodes; 0.08 ppm): 30% and 15%
- efficacy (Colletotrichum coccodes; 0.4 ppm): 49% and 50% and 51%
- efficacy (Colletotrichum coccodes; 2 ppm): 88% and 87% and 82% and 83%
- efficacy (Colletotrichum coccodes; 10 ppm): 94% and 95% and 96%
- efficacy (Alternaria alternata; 2 ppm): 100%
- efficacy (Cercospora beticola; 2 ppm): 94%
- efficacy (Cordana musae; 2 ppm): 77%
- efficacy (Cordana musae; 10 ppm): 87%

Compound: CON=C(C(=O)OC)c1ccccc1CON=C(C)c1cccc(C(F)(F)F)c1 [(3.020) trifloxystrobin, trifloxystrobin]
- efficacy (Botrytis cinerea; 0.008 ppm): 0%
- efficacy (Botrytis cinerea; 0.04 ppm): 9%
- efficacy (Botrytis cinerea; 0.2 ppm): 25%
- efficacy (Botrytis cinerea; 1 ppm): 81%
- efficacy (Colletotrichum coccodes; 0.04 ppm): 58% and 62% and 61%
- efficacy (Colletotrichum coccodes; 0.2 ppm): 84% and 88% and 82%
- efficacy (Colletotrichum coccodes; 1 ppm): 96% and 97% and 92%
- efficacy (Alternaria alternata; 0.008 ppm): 39%
- efficacy (Alternaria alternata; 1 ppm): 100%
- efficacy (Cordana musae; 0.008 ppm): 29%
- efficacy (Cordana musae; 0.04 ppm): 82%
- efficacy (Cordana musae; 0.2 ppm): 83% and 82%
- efficacy (Cordana musae; 1 ppm): 89% and 88% and 86% and 85%

Compound: inpyrfluxam [(2.027) inpyrfluxam]
- efficacy (Botrytis cinerea; 0.008 ppm): 0%
- efficacy (Botrytis cinerea; 0.04 ppm): 37%
- efficacy (Botrytis cinerea; 0.08 ppm): 0%
- efficacy (Colletotrichum coccodes; 0.008 ppm): 0%
- efficacy (Colletotrichum coccodes; 0.08 ppm): 24%
- efficacy (Colletotrichum coccodes; 0.2 ppm): 0%
- efficacy (Colletotrichum coccodes; 0.4 ppm): 23%
- efficacy (Alternaria alternata; 0.008 ppm): 0%
- efficacy (Alternaria alternata; 0.04 ppm): 41% and 27%
- efficacy (Alternaria alternata; 1 ppm): 86%
- efficacy (Cordana musae; 0.008 ppm): 16%
- efficacy (Cordana musae; 0.04 ppm): 0%
- efficacy (Cordana musae; 0.2 ppm): 6%

Compound: O=C(NCCc1ncc(C(F)(F)F)cc1Cl)c1ccccc1C(F)(F)F [fluopyram]
- efficacy (Parastasonospora nodorum; Table H1, 0.16 ppm): 14%
- efficacy (Parastasonospora nodorum; Table H1, 20 ppm): 100%
- efficacy (Fusarium culmorum; 0.16 ppm): 9%
- efficacy (Fusarium culmorum; 0.8 ppm): 18%
- efficacy (Diaporthe citri; Table F1, 0.16 ppm): 0%

Compound: CON(C(=O)c1cn(C)nc1C(F)F)C(C)Cc1c(Cl)cc(Cl)cc1Cl (stereo not shown) [(2.019) pydiflumetofen, pydiflumetofen]
- efficacy (Botrytis cinerea; 0.04 ppm): 71%
- efficacy (Botrytis cinerea; 0.2 ppm): 82%
- efficacy (Botrytis cinerea; 1 ppm): 92%
- efficacy (Colletotrichum coccodes; 0.008 ppm): 8% and 9%
- efficacy (Colletotrichum coccodes; 0.2 ppm): 19%

Compound: CON(C(=O)c1cn(C)nc1C(F)F)C(C)Cc1c(Cl)cc(Cl)cc1Cl (stereo not shown) [pydiflumetofen]
- efficacy (Diaporthe citri; Table F2, 0.04 ppm): 0%
- efficacy (Diaporthe citri; Table F2, 0.2 ppm): 22%
- efficacy (Diaporthe citri; Table F2, 1 ppm): 33%
- efficacy (Cordana musae; 0.008 ppm): 0%
- efficacy (Cordana musae; 0.04 ppm): 9%

Compound: Cc1nn(C)c(F)c1C(=O)Nc1ccccc1C(C)CC(C)C (stereo not shown) [penflufen]
- efficacy (Parastasonospora nodorum; Table H2, 5 ppm): 22%
- efficacy (Diaporthe citri; Table F2, 0.04 ppm): 0%
- efficacy (Diaporthe citri; Table F2, 0.2 ppm): 0%
- efficacy (Cordana musae; 0.2 ppm): 0%
- efficacy (Cordana musae; 1 ppm): 0%

Compound: CC(C)c1ccc(Cl)cc1CN(C(=O)c1c(C(F)F)nn(C)c1F)C1CC1 [(2.038) isoflucypram, isoflucypram]
- efficacy (Colletotrichum coccodes; 0.008 ppm): 23%
- efficacy (Colletotrichum coccodes; 0.04 ppm): 9% and 5%
- efficacy (Colletotrichum coccodes; 0.2 ppm): 14%
- efficacy (Alternaria alternata; 0.008 ppm): 51%
- efficacy (Alternaria alternata; 0.2 ppm): 69%
- efficacy (Cercospora beticola; 0.008 ppm): 20%
- efficacy (Cercospora beticola; 0.04 ppm): 30%
- efficacy (Cercospora beticola; 0.2 ppm): 0%
- efficacy (Cercospora beticola; 1 ppm): 88%
- efficacy (Cordana musae; 0.008 ppm): 8% and 2%
- efficacy (Cordana musae; 0.04 ppm): 0%

Compound: CO/N=C(/C1=NOCCO1)c1ccccc1Oc1ncnc(Oc2ccccc2Cl)c1F [fluoxastrobin]
- efficacy (Parastasonospora nodorum; Table H1, 0.4 ppm): 77%
- efficacy (Parastasonospora nodorum; Table H1, 2 ppm): 87%
- efficacy (Parastasonospora nodorum; Table H2, 0.08 ppm): 60%
- efficacy (Parastasonospora nodorum; Table H2, 0.4 ppm): 65%
- efficacy (Parastasonospora nodorum; Table H2, 2 ppm): 85%
- efficacy (Parastasonospora nodorum; Table H3, 0.08 ppm): 57%
- efficacy (Parastasonospora nodorum; Table H3, 2 ppm): 85%
- efficacy (Parastasonospora nodorum; Table H3, 10 ppm): 82%
- efficacy (Fusarium culmorum; 0.08 ppm): 7% and 0%
- efficacy (Fusarium culmorum; 0.4 ppm): 17%
- efficacy (Fusarium culmorum; 10 ppm): 56%
- efficacy (Diaporthe citri; Table F1, 0.4 ppm): 89%
- efficacy (Diaporthe citri; Table F1, 2 ppm): 98%
- efficacy (Diaporthe citri; Table F2, 2 ppm): 66%
- efficacy (Cordana musae; 0.4 ppm): 64%
- efficacy (Cordana musae; 2 ppm): 78%
- efficacy (Cordana musae; 10 ppm): 78%

Compound: Cc1cccc(-n2nnn(C)c2=O)c1COc1ccn(-c2ccc(Cl)cc2)n1 [(3.030) metyltetraprole, metyltetraprole]
- efficacy (Botrytis cinerea; 0.08 ppm): 18%
- efficacy (Botrytis cinerea; 0.4 ppm): 30% and 25%
- efficacy (Botrytis cinerea; 10 ppm): 84%
- efficacy (Colletotrichum coccodes; 0.008 ppm): 36%
- efficacy (Colletotrichum coccodes; 0.4 ppm): 75% and 73% and 72%
- efficacy (Colletotrichum coccodes; 2 ppm): 92% and 94% and 82%
- efficacy (Colletotrichum coccodes; 10 ppm): 100%
- efficacy (Alternaria alternata; 2 ppm): 92% and 99%
- efficacy (Alternaria alternata; 10 ppm): 99%
- efficacy (Cordana musae; 0.08 ppm): 65%
- efficacy (Cordana musae; 0.4 ppm): 77%
- efficacy (Cordana musae; 10 ppm): 96%
